Test results published in patent US20260297060A1, “COMPOUNDS FOR THE DEGRADATION OF MUTANT BRAF” (C4 THERAPEUTICS, INC., priority 2023, published 2026).
Like-named read-outs stand apart in the source and are kept apart here.

Assay: Pharmacokinetics in female BALB/c nude mice bearing A375 xenografts, 1 day dosing (PK and PD study): plasma, tumor and brain concentrations, AUC
Format: in vivo
Description: The concentrations of Dabrafenib, Compound 26 and Compound 141 in the treatment of female BALB/c nude mice bearing A375 xenografts are shown in Table 62-Table 72 and FIG. 52-FIG. 73.

[1] = 0.75 mg/kg p.o. BID × 1 day, post 2nd dose, 48 h, BQL: below the lower limit of quantitation
[2] = 1 mg/kg p.o. TID × 1 day, post 3rd dose, 48 h, BQL: below the lower limit of quantitation
[3] = Compound 141, 1.5 mg/kg p.o. BID × 1 day, post 2nd dose, 36 h, BQL: below the lower limit of quantitation
[4] = Compound 141, 1.5 mg/kg p.o. BID × 1 day, post 2nd dose, 48 h, BQL: below the lower limit of quantitation
[5] = mouse, brain, po, 0.75 mg/kg, 0.75 mg/kg p.o. BID × 1 day, post 2nd dose, read-out: Mean Concentration in Brain ± SEM
[6] = mouse, brain, po, 1 mg/kg, 1 mg/kg p.o. TID × 1 day, post 3rd dose, read-out: Mean Concentration in Brain ± SEM
[7] = mouse, brain, po, 1.5 mg/kg, Compound 141, 1.5 mg/kg p.o. BID × 1 day, post 2nd dose, read-out: Mean Concentration in Brain ± SEM
[8] = mouse, brain, po, 3 mg/kg, 3 mg/kg p.o. QD × 1 day, read-out: Mean Concentration in Brain ± SEM
[9] = mouse, brain, po, 5 mg/kg, 5 mg/kg p.o. BID × 1 day, post 2nd dose, read-out: Mean Concentration in Brain ± SEM
[10] = mouse, plasma, po, 0.75 mg/kg, 0.75 mg/kg p.o. BID × 1 day, post 1st dose, read-out: Mean Concentration in Plasma ± SEM
[11] = mouse, plasma, po, 0.75 mg/kg, 0.75 mg/kg p.o. BID × 1 day, post 2nd dose, read-out: Mean Concentration in Plasma ± SEM
[12] = mouse, plasma, po, 1 mg/kg, 1 mg/kg p.o. TID × 1 day, post 1st dose, read-out: Mean Concentration in Plasma ± SEM
[13] = mouse, plasma, po, 1 mg/kg, 1 mg/kg p.o. TID × 1 day, post 2nd dose, read-out: Mean Concentration in Plasma ± SEM
[14] = mouse, plasma, po, 1 mg/kg, 1 mg/kg p.o. TID × 1 day, post 3rd dose, read-out: Mean Concentration in Plasma ± SEM

## CCN(C)S(=O)(=O)Nc1ccc(F)c(Oc2ccc3ncn(C4CC5(CCN(C6CC7(C6)CN(c6cc8c(cc6F)c(N6CCC(=O)NC6=O)nn8C)C7)CC5)C4)c(=O)c3c2)c1C#N (stereo not shown) [Compound 141, 6-[2-cyano-3-[[ethyl(methyl)sulfamoyl]amino]-6-fluoro-phenoxy]-3-[7-[2-[3-(2,4-dioxohexahydropyrimidin-1-yl)-5-fluoro-1-methyl-indazol-6-yl]-2-azaspiro[3.3]heptan-6-yl]-7-azaspiro[3.5]nonan-2-yl]-4-oxo-quinazoline]
0.75 mg/kg p.o. BID × 1 day, post 2nd dose, 24 h, BQL: below the lower limit of quantitation
  Mean Concentration in Brain ± SEM: BQL^a
[1]
  Mean Concentration in Brain ± SEM: BQL
  Mean Concentration in Tumor ± SEM: BQL
1 mg/kg p.o. TID × 1 day, post 3rd dose, 24 h, BQL: below the lower limit of quantitation
  Mean Concentration in Brain ± SEM: BQL^a
[2]
  Mean Concentration in Brain ± SEM: BQL
  Mean Concentration in Plasma ± SEM: BQL
3 mg/kg p.o. QD × 1 day, 48 h, BQL: below the lower limit of quantitation
  Mean Concentration in Plasma ± SEM: BQL^a
5 mg/kg p.o. BID × 1 day, post 2nd dose, 24 h, BQL: below the lower limit of quantitation
  Mean Concentration in Brain ± SEM: BQL^a
Compound 141, 1.5 mg/kg p.o. BID × 1 day, post 2nd dose, 24 h, BQL: below the lower limit of quantitation
  Mean Concentration in Brain ± SEM: BQL^a
[3]
  Mean Concentration in Brain ± SEM: BQL
  Mean Concentration in Plasma ± SEM: BQL
[4]
  Mean Concentration in Brain ± SEM: BQL
  Mean Concentration in Plasma ± SEM: BQL
[5]
  concentration at 1 h: 26.7 ± 2.39 ng/g
  concentration at 4 h: 10.2 ± 1.3 ng/g
  concentration at 10 h: 6.61 ± 2 ng/g
[6]
  concentration at 1 h: 22 ± 3.26 ng/g
  concentration at 4 h: 17.9 ± 3.94 ng/g
  concentration at 10 h: 14.6 ± 3.36 ng/g
[7]
  concentration at 0.25 h: 11.2 ± 1.24 ng/g
  concentration at 0.5 h: 25.5 ± 2.96 ng/g
  concentration at 1 h: 44.1 ± 5.96 ng/g
  concentration at 2 h: 39.3 ± 0.318 ng/g
  concentration at 4 h: 23.5 ± 4.95 ng/g
  concentration at 10 h: 3.51 ± 1.17 ng/g
[8]
  concentration at 1 h: 70.5 ± 4.29 ng/g
  concentration at 4 h: 37.6 ± 9.11 ng/g
  concentration at 10 h: 11 ± 1.97 ng/g
mouse, brain, po, 3 mg/kg, 3 mg/kg p.o. QD × 1 day, 24 h, read-out: Mean Concentration in Brain ± SEM
  concentration at 24 h: 3.31 ng/g
mouse, brain, po, 3 mg/kg, 3 mg/kg p.o. QD × 1 day, 48 h, read-out: Mean Concentration in Brain ± SEM
  concentration at 48 h: 1.79 ng/g
[9]
  concentration at 1 h: 126 ± 6.12 ng/g
  concentration at 4 h: 52.9 ± 12.8 ng/g
  concentration at 10 h: 13.1 ± 2.79 ng/g
mouse, brain, po, 5 mg/kg, 5 mg/kg p.o. BID × 1 day, post 2nd dose, 48 h, read-out: Mean Concentration in Brain ± SEM
  concentration at 48 h: 4 ng/g
[10]
  concentration at 0.25 h: 340 ± 19 ng/mL
  concentration at 0.5 h: 832 ± 61.1 ng/mL
  concentration at 1 h: 1070 ± 94.7 ng/mL
  concentration at 2 h: 972 ± 13.5 ng/mL
  concentration at 4 h: 491 ± 20.2 ng/mL
  concentration at 8 h: 66.3 ± 5.93 ng/mL
mouse, plasma, po, 0.75 mg/kg, 0.75 mg/kg p.o. BID × 1 day, post 1st dose, 12 h, read-out: Mean Concentration in Plasma ± SEM
  concentration at 12 h: 26.5 ± 4.92 ng/mL
[11]
  concentration at 0.25 h: 297 ± 13.2 ng/mL
  concentration at 0.5 h: 502 ± 84.1 ng/mL
  concentration at 1 h: 778 ± 59.4 ng/mL
  concentration at 2 h: 818 ± 118 ng/mL
  concentration at 4 h: 247 ± 24.5 ng/mL
  concentration at 10 h: 111 ± 18.4 ng/mL
mouse, plasma, po, 0.75 mg/kg, 0.75 mg/kg p.o. BID × 1 day, post 2nd dose, 24 h, read-out: Mean Concentration in Plasma ± SEM
  concentration at 24 h: 1.09 ± 0.203 ng/mL
mouse, plasma, po, 0.75 mg/kg, 0.75 mg/kg p.o. BID × 1 day, post 2nd dose, 36 h, read-out: Mean Concentration in Plasma ± SEM
  concentration at 36 h: 0.764 ng/mL
mouse, plasma, po, 0.75 mg/kg, 0.75 mg/kg p.o. BID × 1 day, post 2nd dose, 48 h, read-out: Mean Concentration in Plasma ± SEM
  concentration at 48 h: 4.96 ng/mL
[12]
  concentration at 0.25 h: 438 ± 25.4 ng/mL
  concentration at 0.5 h: 836 ± 10.8 ng/mL
  concentration at 1 h: 1130 ± 180 ng/mL
  concentration at 2 h: 1000 ± 55.2 ng/mL
  concentration at 4 h: 699 ± 129 ng/mL
  concentration at 8 h: 242 ± 30.4 ng/mL
[13]
  concentration at 0.25 h: 334 ± 54.7 ng/mL
  concentration at 2 h: 879 ± 74.6 ng/mL
  concentration at 8 h: 218 ± 16.3 ng/mL
[14]
  concentration at 0.25 h: 346 ± 65.5 ng/mL
  concentration at 0.5 h: 694 ± 54.4 ng/mL
  concentration at 1 h: 664 ± 72 ng/mL
  concentration at 2 h: 1600 ± 124 ng/mL
  concentration at 4 h: 563 ± 173 ng/mL
  concentration at 10 h: 415 ± 74.4 ng/mL
mouse, plasma, po, 1 mg/kg, 1 mg/kg p.o. TID × 1 day, post 3rd dose, 24 h, read-out: Mean Concentration in Plasma ± SEM
  concentration at 24 h: 10.5 ± 5.67 ng/mL
mouse, plasma, po, 1 mg/kg, 1 mg/kg p.o. TID × 1 day, post 3rd dose, 36 h, read-out: Mean Concentration in Plasma ± SEM
  concentration at 36 h: 3.2 ± 0.392 ng/mL
